Reference: patent US20120129875A1, “SUBSTITUTED QUINAZOLINES AS FUNGICIDES” (SYNGENTA CROP PROTECTION, LLC, priority 2009, published 2012)

Assays:
Assay type in all cases: in vivo
[1] = test system: Mycosphaerella graminicola (Septoria tritici); assay: Mycosphaerella graminicola (Septoria tritici) / wheat / preventative (Septoria tritici leaf spot on wheat); conditions: Zymoseptoria tritici, wheat plants cv. Riband, inoculated one day after application, vs untreated control, read-out: disease control
Method: Mycosphaerella graminicola (Septoria tritici)/Wheat/Preventative (Septoria tritici Leaf Spot on Wheat) 2-week old wheat plants cv. Riband are treated with the formulated test compound in a spray chamber. The test plants are inoculated by spraying a spore suspension on them one day after application. After an incubation period of 1 day at 22° C./21° C. (day/night) and 95% rh, the test plants are kept at 22° C./21° C. (day/night) and 70% rh in a greenhouse. The percentage leaf area covered by disease is assessed when an appropriate level of disease appears on untreated check plants (16-19 days after application).

[2] = test system: Plasmopara viticola; assay: Plasmopara viticola / grape / preventative (grape downy mildew); conditions: grape seedlings cv. Gutedel, inoculated one day after application, vs untreated control, read-out: disease control
[3] = test system: Phytophthora infestans; assay: whole plant or invertebrate; conditions: in Solanum tuberosum, read-out: disease control
[4] = test system: Botryotinia fuckeliana (Botrytis cinerea); assay: Botryotinia fuckeliana (Botrytis cinerea) / tomato / preventative (Botrytis on tomato); conditions: tomato plants cv. Roter Gnom, inoculated two days after application, vs untreated control, read-out: disease control
Method: Botryotinia fuckeliana (Botrytis cinerea)/Tomato/Preventative (Botrytis on Tomato) 4-week old tomato plants cv. Roter Gnom are treated with the formulated test compound in a spray chamber. The test plants are inoculated by spraying them with a spore suspension two days after application. The inoculated test plants are incubated at 20° C. and 95% rh in a greenhouse and the percentage leaf area covered by disease is assessed when an appropriate level of disease appears on untreated check plants (5-6 days after application).

[5] = test system: Mycosphaerella arachidis (Cercospora arachidicola); assay: Mycosphaerella arachidis (Cercospora arachidicola) / peanut / preventative; conditions: peanut plants cv. Georgia Green, inoculated one day after application, vs untreated control, read-out: disease control
Method: Mycosphaerella arachidis (Cercospora arachidicola)/Peanut/Preventative 3-week old peanut plants cv. Georgia Green are treated with the formulated test compound in a spray chamber. The test plants are inoculated by spraying them with a spore suspension on their lower leaf surface one day after application. After an incubation period of 4 days under a plastic hood at 23° C. and 100% rh, the test plants are kept at 23° C./20° C. (day/night) and 70% rh in a greenhouse. The percentage leaf area covered by disease is assessed when an appropriate level of disease appears on untreated check plants (12-14 days after application).

[6] = test system: Erysiphe necator (Uncinula necator); assay: Erysiphe necator (Uncinula necator) / grape / preventative (powdery mildew on grape); conditions: grape seedlings cv. Gutedel, inoculated 1 day after application, vs untreated control, read-out: disease control
Method: Erysiphe necator (Uncinula necator)/Grape/Preventative (Powdery Mildew on Grape) 5-week old grape seedlings cv. Gutedel are treated with the formulated test compound in a spray chamber. The test plants are inoculated by shaking plants infected with grape powdery mildew above them 1 day after application. The inoculated test plants are incubated at 24/22° C. (day/night) and 70% rh under a light regime of 14/10 h (light/dark) and the percentage leaf area covered by disease is assessed when an appropriate level of disease appears on untreated check plants (7-9 days after application).

[7] = test system: Pyrenophora teres (Helminthosporium teres); assay: Pyrenophora teres (Helminthosporium teres) / barley / preventative (net blotch on barley); conditions: barley plants cv. Regina, inoculated 2 days after application, vs untreated control, read-out: disease control
In short: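 One-week-old barley cv. Regina was sprayed with formulated compound, then spore-inoculated 2 days later and kept at 20° C, 95% rh.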

[8] = test system: Alternaria solani; assay: Alternaria solani / tomato / preventative (Alternaria on tomato); conditions: tomato plants cv. Roter Gnom, inoculated two days after application, vs untreated control, read-out: disease control
In short: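 Four-week-old tomato plants cv. Roter Gnom sprayed preventatively with formulated compound, then spore-inoculated two days later. Kept at 22/18° C. (day/night), 95% rh in greenhouse.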

Measured: pest or weed control at 200 ppm

COc1ccc(-c2nc(-c3ncc4ccccc4n3)ccc2C)cc1F [3/92, 2-[6-(3-fluoro-4-methoxy-phenyl)-5-methylpyridin-2-yl]-quinazoline]
≥ 80%: all assays above

Cc1cc(F)ccc1-c1cccc(-c2ncc3ccccc3n2)n1 [2/55]
not listed: [1]
≥ 80%: all other assays above

Cc1cccc(-c2nc(-c3ncc4ccccc4n3)ccc2C)c1 [3/75]
not listed: [7]
≥ 80%: all other assays above

Cc1cc(-c2nc(-c3ncc4ccccc4n3)ccc2C)ccc1F [3/85]
≥ 80%: all assays above

c1ccc(Cc2cccc(-c3ncc4ccccc4n3)n2)cc1 [6/17, 2-(6-benzylpyridin-2-yl)-quinazoline]
not listed: [1]
≥ 80%: all other assays above

Cc1ccc(-c2ncc3ccccc3n2)nc1-c1cc(F)cc(F)c1 [3/90]
≥ 80%: all assays above
